Laboratory results: patent US20210045385A1, “PYRIDAZINONE-SUBSTITUTED KETOXIMES AS HERBICIDES” (FMC Corporation, priority 2018, published 2021)

What was measured:
Type in all cases: in vivo
[1] = system: foxtail, giant (giant foxtail, Setaria faberii); assay: Test A preemergence, visual plant response rating; details: for Foxtail, Giant plant response rating: 125 g ai/ha, preemergence, 0 to 100 scale, 0 no effect, 100 complete control; for Foxtail, Giant plant response rating (0 to 100 scale): 500 g ai/ha Preemergence, approx. 10 days
Method in brief: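 Ratings 0–100 (100 = complete control), visual, vs untreated controls at ~10 days. Application pre- or postemergence; solvent mixture with surfactant; loam/sand medium.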

[2] = system: pigweed (Amaranthus retroflexus); assay: Test A preemergence, visual plant response rating; details: for Pigweed plant response rating: 125 g ai/ha, preemergence, 0 to 100 scale, 0 no effect, 100 complete control; for Pigweed plant response rating (0 to 100 scale): 500 g ai/ha Preemergence, approx. 10 days
Method in brief: (§1)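 Preemergence: seeds in loam/sand blend given directed soil spray of compound in non-phytotoxic solvent with surfactant. Postemergence: plants 2–10 cm, one- to two-leaf stage, sprayed with same formulation. Visual injury rated vs untreated controls after ~10 days in greenhouse, 0 (no effect) to 100 (complete control).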

kochia (Kochia scoparia) [3] = assay: Test A preemergence, visual plant response rating; details: for Kochia plant response rating: 125 g ai/ha, preemergence, 0 to 100 scale, 0 no effect, 100 complete control; for Kochia plant response rating (0 to 100 scale): 500 g ai/ha Preemergence, approx. 10 days
Method in brief: as §1

[4] = system: Italian ryegrass (Lolium multiflorum); assay: Test A preemergence, visual plant response rating; details: for Ryegrass, Italian plant response rating: 125 g ai/ha, preemergence, 0 to 100 scale, 0 no effect, 100 complete control; for Ryegrass, Italian plant response rating (0 to 100 scale): 500 g ai/ha Preemergence, approx. 10 days
Method in brief: as §1

[5] = system: ragweed (common ragweed, Ambrosia elatior); assay: Test A preemergence, visual plant response rating; details: for Ragweed plant response rating: 125 g ai/ha, preemergence, 0 to 100 scale, 0 no effect, 100 complete control; for Ragweed plant response rating (0 to 100 scale): 500 g ai/ha Preemergence, approx. 10 days
Method in brief: as §1

[6] = system: barnyardgrass (Echinochloa crus-galli); assay: Test A preemergence, visual plant response rating; details: for Barnyardgrass plant response rating: 125 g ai/ha, preemergence, 0 to 100 scale, 0 no effect, 100 complete control; for Barnyardgrass plant response rating (0 to 100 scale): 500 g ai/ha Preemergence, approx. 10 days
Method in brief: as §1

[7] = system: blackgrass (Alopecurus myosuroides); assay: Test A postemergence, visual plant response rating; details: for Blackgrass plant response rating (0 to 100 scale): 500 g ai/ha, postemergence, 0 is no effect, 100 is complete control; for Blackgrass plant response rating: Postemergence, 125 g ai/ha, 0 to 100 scale (0 no effect, 100 complete control)
Method in brief: as §1

[8] = system: galium (catchweed bedstraw, Galium aparine); assay: Test A postemergence, visual plant response rating; details: for Galium plant response rating (0 to 100 scale): 500 g ai/ha, postemergence, 0 is no effect, 100 is complete control; for Galium plant response rating: Postemergence, 125 g ai/ha, 0 to 100 scale (0 no effect, 100 complete control)
Method in brief: as §1

[9] = system: foxtail, giant (giant foxtail, Setaria faberii); assay: Test A postemergence, visual plant response rating; details: for Foxtail, Giant plant response rating (0 to 100 scale): 500 g ai/ha, postemergence, 0 is no effect, 100 is complete control; for Foxtail, Giant plant response rating: Postemergence, 125 g ai/ha, 0 to 100 scale (0 no effect, 100 complete control)
Method in brief: as §1

[10] = system: pigweed (Amaranthus retroflexus); assay: Test A postemergence, visual plant response rating; details: for Pigweed plant response rating (0 to 100 scale): 500 g ai/ha, postemergence, 0 is no effect, 100 is complete control; for Pigweed plant response rating: Postemergence, 125 g ai/ha, 0 to 100 scale (0 no effect, 100 complete control)
Method in brief: as §1

kochia (Kochia scoparia) [11] = assay: Test A postemergence, visual plant response rating; details: for Kochia plant response rating (0 to 100 scale): 500 g ai/ha, postemergence, 0 is no effect, 100 is complete control; for Kochia plant response rating: Postemergence, 125 g ai/ha, 0 to 100 scale (0 no effect, 100 complete control)
Method in brief: as §1

[12] = system: Italian ryegrass (Lolium multiflorum); assay: Test A postemergence, visual plant response rating; details: for Ryegrass, Italian plant response rating (0 to 100 scale): 500 g ai/ha, postemergence, 0 is no effect, 100 is complete control; for Ryegrass, Italian plant response rating: Postemergence, 125 g ai/ha, 0 to 100 scale (0 no effect, 100 complete control)
Method in brief: as §1

[13] = system: ragweed (common ragweed, Ambrosia elatior); assay: Test A postemergence, visual plant response rating; details: for Ragweed plant response rating (0 to 100 scale): 500 g ai/ha, postemergence, 0 is no effect, 100 is complete control; for Ragweed plant response rating: Postemergence, 125 g ai/ha, 0 to 100 scale (0 no effect, 100 complete control)
Method in brief: as §1

[14] = system: barnyardgrass (Echinochloa crus-galli); assay: Test A postemergence, visual plant response rating; details: for Barnyardgrass plant response rating (0 to 100 scale): 500 g ai/ha, postemergence, 0 is no effect, 100 is complete control; for Barnyardgrass plant response rating: Postemergence, 125 g ai/ha, 0 to 100 scale (0 no effect, 100 complete control)
Method in brief: as §1

[15] = system: wheat (Triticum aestivum); assay: Test A postemergence, visual plant response rating; details: for Wheat plant response rating (0 to 100 scale): 500 g ai/ha, postemergence, 0 is no effect, 100 is complete control; for Wheat plant response rating: Postemergence, 125 g ai/ha, 0 to 100 scale (0 no effect, 100 complete control)
Method in brief: as §1

corn (Zea mays) = assay: Test A postemergence, visual plant response rating; details: for Corn plant response rating (0 to 100 scale): 500 g ai/ha, postemergence, 0 is no effect, 100 is complete control; for Corn plant response rating: Postemergence, 125 g ai/ha, 0 to 100 scale (0 no effect, 100 complete control)
Method in brief: as §1

[16] = system: sedge, umbrella (small-flower umbrella sedge, Cyperus difformis); assay: Test B flooded paddy test, visual plant response rating; details: 250 g ai/ha, Flood, applied to paddy water, 2-leaf stage, evaluated after 13 to 15 days
Method in brief: (§2)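 Rice, umbrella sedge, ducksalad and barnyardgrass grown to 2-leaf stage; pots flooded 3 cm above soil and compound applied directly to paddy water, depth maintained.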

[17] = system: ducksalad (Heteranhera limosa); assay: as above; details: 250 g ai/ha, Flood, applied to paddy water, 2-leaf stage, evaluated after 13 to 15 days
Method in brief: as §2

[18] = system: barnyardgrass (Echinochloa crus-galli); assay: as above; details: 250 g ai/ha, Flood, applied to paddy water, 2-leaf stage, evaluated after 13 to 15 days
Method in brief: as §2

rice (Oryza sativa) = assay: as above; details: 250 g ai/ha, Flood, applied to paddy water, 2-leaf stage, evaluated after 13 to 15 days
Method in brief: as §2

Structure (SMILES) | Foxtail, Giant plant response rating [1] | Foxtail, Giant plant response rating (0 to 100 scale) [1] | Pigweed plant response rating [2] | Pigweed plant response rating (0 to 100 scale) [2] | Kochia plant response rating (kochia (Kochia scoparia) [3]) | Kochia plant response rating (0 to 100 scale) (kochia (Kochia scoparia) [3]) | Ryegrass, Italian plant response rating [4] | Ryegrass, Italian plant response rating (0 to 100 scale) [4] | Ragweed plant response rating [5] | Ragweed plant response rating (0 to 100 scale) [5] | Barnyardgrass plant response rating [6] | Barnyardgrass plant response rating (0 to 100 scale) [6] | Blackgrass plant response rating (0 to 100 scale) [7] | Blackgrass plant response rating [7] | Galium plant response rating (0 to 100 scale) [8] | Galium plant response rating [8] | Foxtail, Giant plant response rating (0 to 100 scale) [9] | Foxtail, Giant plant response rating [9] | Pigweed plant response rating (0 to 100 scale) [10] | Pigweed plant response rating [10] | also measured
CON=C(c1c(O)c(C)nn(C)c1=O)c1cccc2ccsc12 (single isomer, unassigned) [Compound 47] | 20 | 90 | 20 | 80 | 0 | 90 | 10 | 70 | 100 | 100 | 0 | 50 | 30 | 20 | 100 | 70 | 70 | 30 | 90 | 60 | Kochia plant response rating (0 to 100 scale) (kochia (Kochia scoparia) [11]): 30; Kochia plant response rating (kochia (Kochia scoparia) [11]): 10; Ryegrass, Italian plant response rating (0 to 100 scale) [12]: 70; Ryegrass, Italian plant response rating [12]: 0; Ragweed plant response rating (0 to 100 scale) [13]: 90; Ragweed plant response rating [13]: 80; Barnyardgrass plant response rating (0 to 100 scale) [14]: 20; Barnyardgrass plant response rating [14]: 30; Wheat plant response rating (0 to 100 scale) [15]: 0; Wheat plant response rating [15]: 0; Corn plant response rating (0 to 100 scale) (corn (Zea mays)): 20; Corn plant response rating (corn (Zea mays)): 0; Plant response rating, Sedge, Umbrella (0 to 100 scale, 0 is no effect, 100 is complete control) [16]: 0; Plant response rating, Ducksalad (0 to 100 scale, 0 is no effect, 100 is complete control) [17]: 0; Plant response rating, Barnyardgrass (0 to 100 scale, 0 is no effect, 100 is complete control) [18]: 0; Plant response rating, Rice (0 to 100 scale, 0 is no effect, 100 is complete control) (rice (Oryza sativa)): 0
CO/N=C(\c1c(C)cccc1F)c1c(O)c(C)nn(C)c1=O [Compound 39] | 0 | 0 | 0 | 0 | 0 | 0 | 0 | 0 | 0 | 30 | 0 | 0 | 0 | 0 | 70 | 40 | 0 | 0 | 10 | 0 | Kochia plant response rating (0 to 100 scale) (kochia (Kochia scoparia) [11]): 0; Kochia plant response rating (kochia (Kochia scoparia) [11]): 0; Ryegrass, Italian plant response rating (0 to 100 scale) [12]: 0; Ryegrass, Italian plant response rating [12]: 0; Ragweed plant response rating (0 to 100 scale) [13]: 60; Ragweed plant response rating [13]: 0; Barnyardgrass plant response rating (0 to 100 scale) [14]: 10; Barnyardgrass plant response rating [14]: 0; Wheat plant response rating (0 to 100 scale) [15]: 10; Wheat plant response rating [15]: 0; Corn plant response rating (0 to 100 scale) (corn (Zea mays)): 20; Corn plant response rating (corn (Zea mays)): 0; Plant response rating, Sedge, Umbrella (0 to 100 scale, 0 is no effect, 100 is complete control) [16]: 0; Plant response rating, Ducksalad (0 to 100 scale, 0 is no effect, 100 is complete control) [17]: 0; Plant response rating, Barnyardgrass (0 to 100 scale, 0 is no effect, 100 is complete control) [18]: 0; Plant response rating, Rice (0 to 100 scale, 0 is no effect, 100 is complete control) (rice (Oryza sativa)): 0
